Columns and labels:
[1] = target: T1, NADP linked alcohol dehydrogenase (alcohol-aldehyde/ketone oxidoreductase) (Thermoanaerobacter brockii, UniProt P14941); test: Specific activity of partially purified NADP linked alcohol dehydrogenase with alcohols and carbonyl compounds (absorbance at 334 nm); type: biochemical, Thermoanaerobium brockii; conditions: for Activity V/mg. at 60° C.: saturating substrate (0.2-0.5 M alcohol or ketone, 10 mM acetaldehyde), 0.5 mM NADP or 0.2 mM NADPH, 0.1 M Tris-Cl pH 7.8; for Optimum pH: Tris-Cl buffers, acetaldehyde reduction or sec-butanol oxidation; for Reaction as substrate: tested as substrates; for Activity with the substance as coenzyme: as coenzymes instead of NADP/NADPH
T1 construct: of the T. brockii enzyme preparation with various alcohols and carbonyl compounds; made in house; host or cells: T. brockii itself (native host; partially purified enzyme)
T1 sequence (P14941 1-352): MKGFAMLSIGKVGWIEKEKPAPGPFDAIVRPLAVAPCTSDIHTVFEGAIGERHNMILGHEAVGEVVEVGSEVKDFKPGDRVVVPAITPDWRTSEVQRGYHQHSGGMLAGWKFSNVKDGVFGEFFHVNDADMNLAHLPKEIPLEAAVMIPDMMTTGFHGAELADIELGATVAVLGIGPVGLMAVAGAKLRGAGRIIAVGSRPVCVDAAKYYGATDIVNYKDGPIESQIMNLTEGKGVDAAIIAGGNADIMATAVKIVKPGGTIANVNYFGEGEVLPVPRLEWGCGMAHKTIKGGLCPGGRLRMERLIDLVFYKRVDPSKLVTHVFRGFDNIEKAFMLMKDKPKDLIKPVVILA

[2] = target: T2, NADP linked alcohol dehydrogenase (secondary alcohol dehydrogenase activity) (Thermoanaerobacter brockii, UniProt P14941); test: Effects of metal ions, complexing agents and thiol reagents on the enzyme; type: biochemical, Thermoanaerobium brockii; conditions: for Reactivation of PCMB inhibited enzyme: 5 mM DTT, within a few minutes, 1 mM ZnSO4
T2 construct: The NADP linked alcohol dehydrogenase derived from T. brockii can be immobilized; made in house; host or cells: T. brockii itself (native host)
T2 sequence (P14941 1-352): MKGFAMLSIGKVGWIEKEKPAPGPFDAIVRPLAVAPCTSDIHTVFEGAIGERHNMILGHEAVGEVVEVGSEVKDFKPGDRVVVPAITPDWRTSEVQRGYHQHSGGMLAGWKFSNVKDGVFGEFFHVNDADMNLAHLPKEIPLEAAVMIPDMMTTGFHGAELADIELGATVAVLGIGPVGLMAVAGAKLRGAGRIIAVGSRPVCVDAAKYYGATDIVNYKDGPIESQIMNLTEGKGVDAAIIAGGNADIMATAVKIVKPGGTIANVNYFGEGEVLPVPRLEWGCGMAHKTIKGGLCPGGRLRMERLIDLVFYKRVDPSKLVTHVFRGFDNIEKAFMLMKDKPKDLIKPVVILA
Protocol: Metal ions, complexing agents and thiol reagents had the following effects.
Each of the above studies were performed at 40° C.

T. brockii cultures = test: Reduction of ketones by T. brockii cultures; type: cell-based, Thermoanaerobium brockii; conditions: 0.5% ketone in TYEG medium; 60° C.; 15 hours incubation
Protocol: T. brockii was incubated at 60° C. in anaerobic culture tubes containing the previously described TYEG medium supplemented with 0.5% acetone or butanone. More than 50% of each ketone was converted to the corresponding alcohol after 15 hours incubation. Growth of the organism ceased once the pH fell below 5.0. The reaction is indicated in FIG. 1 when acetone is substituted for glucose to produce the corresponding secondary isopropanol.

[3] = Thermostability and storage stability of the alcohol dehydrogenase; type: physicochemical, Thermoanaerobium brockii
Protocol: The immobilized alcohol dehydrogenase of example 2 was packed in a small flow cell which allowed amperometric measurement of NAPDH concentration, using a glossy carbon and Ag/Cl electrode with 0.8 volt potential difference. A soltuion containing 0.05 mM NADP and varying concentrations of sec. butanol 10-100 micro molar were passed through the cell and gave a signal which depended on the concentration of alcohol. Alternatively, solutions that contained 10 mM NADPH and varying concentrations of acetone produced signals which decreased linearly with increasing concentrations of acetone at 0-200 mM. Potassium phosphate buffer at 500 mM and pH 7.5 was used in these experiments. The immobilized enzyme system for measurement of ketones and alcohols was stable for 2 weeks at room temperature.

Molecule | Activity V/mg. at 60° C. [1] | also measured
O=C1CC2CCC1C2 (stereo not drawn) | 4.9 μ Mole/Min./Mg Protein | 
2-Cyclohexanone | 4.9 μ Mole/Min./Mg Protein | 
O[C@H](CS)[C@H](O)CS (racemic) [DTT, dithiothreitol] |  | Reactivation of PCMB inhibited enzyme ([2]; 40° C.): Complete reversal of the PCMB inhibition
CC1CCCCC1=O (stereo not drawn) [2-Methyl Cyclohexanone] | 6.0 μ Mole/Min./Mg Protein | 
CC1CCCC(=O)C1 (stereo not drawn) [3-Methyl Cyclohexanone] | 2.0 μ Mole/Min./Mg Protein | 
CC1CCC(=O)CC1 [4-Methyl Cyclohexanone] | 0.5 μ Mole/Min./Mg Protein | 
Oc1cccc2cccnc12 [8-hydroxyquinoline] |  | Inhibition of activity by complexing agents [2]: did not significantly inhibit activity
C=CC(O)CC (stereo not drawn) [CH2CHCH(OH)CH2 CH3] | 65.0 μ Mole/Min./Mg Protein | 
CC(C)CO [CH3 CH2 (CH3)CH2 OH] | 3.1 μ Mole/Min./Mg Protein | 
CCC(C)CO (stereo not drawn) [CH3 CH2 CH2 (CH3)CH2 OH] | 3.0 μ Mole/Min./Mg Protein | 
CCCCCO [CH3 CH2 CH2 CH2 CH2 OH] | 0.9 μ Mole/Min./Mg Protein | 
CCCCO [CH3 CH2 CH2 CH2 OH] | 4.1 μ Mole/Min./Mg Protein | 
CCCO [CH3 CH2 CH2 OH] | 3.6 μ Mole/Min./Mg Protein | 
CCC(C)O (stereo not drawn) [CH3 CH2 CH(OH)CH3, sec-butanol] | 78.0 μ Mole/Min./Mg Protein | Optimum pH [1]: 7.8-9.0
CCO [CH3 CH2 OH] | 3.2 μ Mole/Min./Mg Protein | 
CC(O)CC(C)O (stereo not drawn) [CH3 CH(OH)CH2 CH(OH)CH3] | 2.6 μ Mole/Min./Mg Protein | 
CC(C)O [CH3 CH(OH)CH3, isopropanol] | 59.0 μ Mole/Min./Mg Protein | 
CC=O [CH3 CHO, acetaldehyde] | 7.8 μ Mole/Min./Mg Protein | Optimum pH [1]: 7.8
CCC(C)=O [CH3 COCH2 CH3, butanone] | 7.6 μ Mole/Min./Mg Protein | Ketone converted to the corresponding alcohol (T. brockii cultures): More than 50%
CC(C)=O [CH3 COCH3, acetone] | 10.4 μ Mole/Min./Mg Protein | Ketone converted to the corresponding alcohol (T. brockii cultures): More than 50%
CO [CH3 OH] | 0 μ Mole/Min./Mg Protein | 
[Ca+2].[Cl-].[Cl-] [CaCl2] |  | Activation or inhibition by metal salts ([2]; 1 mM, 40° C.): no significant activation or inhibition

Molecule | Activity V/mg. at 60° C. [1] | also measured
[Cl][Cu][Cl] [CuCl2] |  | Activation or inhibition by metal salts ([2]; 1 mM, 40° C.): no significant activation or inhibition
O=C1CCCCCC1 [Cycloheptanone] | 3.0 μ Mole/Min./Mg Protein | 
OC1CCCCC1 [Cyclohexanol] | 12.2 μ Mole/Min./Mg Protein | 
O=C1CCCCC1 [Cyclohexanone] | 6.2 μ Mole/Min./Mg Protein | 
O=C1CCCCCCC1 [Cyclooctanone] | 0 μ Mole/Min./Mg Protein | 
O=C1CCCC1 [Cyclopentanone] | 6.0 μ Mole/Min./Mg Protein | 
O=C(O)CN(CCN(CC(=O)O)CC(=O)O)CC(=O)O [EDTA, ethylenediamine-tetraacetic acid, reference compound] |  | Effect on thermostability of the enzyme ([3]; millimolar concentrations): did not decrease thermostability; Inhibition of activity by complexing agents [2]: did not significantly inhibit activity
C[C@H](O)C(=O)O [L-lactic acid] |  | Reaction as substrate [1]: did not react
CC(=O)C1CC1 [Methyl cyclopropyl ketone] | 0.5 μ Mole/Min./Mg Protein | 
[Cl-].[Cl-].[Mg+2] [MgCl2] |  | Activation or inhibition by metal salts ([2]; 1 mM, 40° C.): no significant activation or inhibition
NC(=O)c1ccc[n+]([C@@H]2O[C@H](COP(=O)([O-])OP(=O)(O)OC[C@H]3O[C@@H](n4cnc5c(N)ncnc54)[C@H](O)[C@@H]3O)[C@@H](O)[C@H]2O)c1 [NAD, reference compound] |  | Activity with the substance as coenzyme [1]: No activity
NC(=O)C1=CN([C@@H]2O[C@H](COP(=O)(O)OP(=O)(O)OC[C@H]3O[C@@H](n4cnc5c(N)ncnc54)[C@H](O)[C@@H]3O)[C@@H](O)[C@H]2O)C=CC1 [NADH, reference compound] |  | Activity with the substance as coenzyme [1]: No activity
NC(=O)c1ccc[n+]([C@@H]2O[C@H](COP(=O)([O-])OP(=O)(O)OC[C@H]3O[C@@H](n4cnc5c(N)ncnc54)[C@H](OP(=O)(O)O)[C@@H]3O)[C@@H](O)[C@H]2O)c1 [NADP, Nicotinamide adenine dinucleotide phosphate] |  | Apparent Michaelis constant KM (coenzymes) [1]: in the micromolar range
NC(=O)C1=CN([C@@H]2O[C@H](COP(=O)(O)OP(=O)(O)OC[C@H]3O[C@@H](n4cnc5c(N)ncnc54)[C@H](OP(=O)(O)O)[C@@H]3O)[C@@H](O)[C@H]2O)C=CC1 [NADPH, reference compound] |  | Apparent Michaelis constant KM (coenzymes) [1]: in the micromolar range
CCN1C(=O)C=CC1=O [NEM, N-ethylmaleimide] |  | Inactivation of the enzyme ([2]; 1 mM, slow (15 min.), 40° C.): inactivated the enzyme
O=C(O)c1cc[c]([Hg][Cl])cc1 [PCMB, parachloromercuricbenzoate] |  | Reaction of thiol reagent with the enzyme (inhibition) ([2]; 0.05 mM, 40° C.): reacted instantly
[Cl-].[Cl-].[Zn+2] [ZnCl2] |  | Activation or inhibition by metal salts ([2]; 1 mM, 40° C.): no significant activation or inhibition
O=S(=O)([O-])[O-].[Zn+2] [ZnSO4] |  | Reactivation of PCMB inhibited enzyme ([2]; 40° C.): necessary for complete reactivation
OCC(O)CO [glycerol] |  | Reaction as substrate [1]: did not react
c1cnc2c(c1)ccc1cccnc12 [orthophenanthroline] |  | inhibition at 2000 µM ([2]; 2 mM, 40° C., read-out: Inhibitory effect on secondary alcohol dehydrogenase activity): 15 to 20%
immobilized enzyme system: T. brockii alcohol dehydrogenase immobilized on sepharose 4B-CnBr, packed in a flow cell (protein, UniProt P14941 1-352, looked up, immobilized on CNBr-Sepharose 4B) NADP-dependent isopropanol …: MKGFAMLSIGKVGWIEKEKPAPGPFDAIVRPLAVAPCTSDIHTVFEGAIGERHNMILGHEAVGEVVEVGSEVKDFKPGDRVVVPAITPDWRTSEVQRGYHQHSGGMLAGWKFSNVKDGVFGEFFHVNDADMNLAHLPKEIPLEAAVMIPDMMTTGFHGAELADIELGATVAVLGIGPVGLMAVAGAKLRGAGRIIAVGSRPVCVDAAKYYGATDIVNYKDGPIESQIMNLTEGKGVDAAIIAGGNADIMATAVKIVKPGGTIANVNYFGEGEVLPVPRLEWGCGMAHKTIKGGLCPGGRLRMERLIDLVFYKRVDPSKLVTHVFRGFDNIEKAFMLMKDKPKDLIKPVVILA |  | Time stable ([3]; room temperature, immobilized on sepharose in flow cell): 2 weeks

Reference: patent US4352885A, “Preparation of a novel NADP linked alcohol-aldehyde/ketone oxidoreductase from thermophilic anaerobic bacteria for analytical and commercial use” (Wisconsin Alumni Research Foundation, priority 1980, dated 1982)
